In patent publication US12473304B2, “Heterocyclic PAD4 inhibitors” (BRISTOL-MYERS SQUIBB COMPANY, priority 2020, dated 2025):

Target: human PAD4 (hPAD4) (Homo sapiens (Human), UniProt Q9UM07)
Test: RFMS Human PAD4 Functional Assay 1
Format: biochemical
Conditions: RFMS assay 1; 5 nM hPAD4, 250 μM BAEE substrate, 50 μM calcium, 37° C.
Procedure: RFMS Human PAD4 Functional Assay 1:
Compounds were solubilized in 100% DMSO to achieve all) mM compound concentration. Compound stock solutions were stored at RT. A series of dilutions were prepared in DMSO and mixed 8 times with 20 μL mixing volume. Final top concentration of compound in the assay is 50 μM. Final assay conditions were as follows: • Reaction volume: 26 μl • Assay buffer: 25 mM hepes, pH 7.5, 5 mM NaCl, 1 mM DTT, 0.2 mg/ml BSA, 0.01% CHAPS, 50 μM Calcium, and 5 μM TPEN • Final concentrations: 5 nM hPAD4 enzyme, 250 μM BASE, and 0.5% DMSO • Total incubation time: 30 mins compound and enzyme preincubation at 37° C., 90 min enzyme/substrate reaction, 30 min reaction with phenyl glyoxal at 37° C. • Stop solution: 40 μl 5% TCA in ACN
0.13 μL of compound solution was added to 13 μL of 10 nM PAD4 in assay buffer. After 30 min 13 μl of 500 μM of BAEE was added in 25 mM hepes, pH 7.5, 5 mM NaCl, 1 mM DTT, 0.2 mg/ml BSA, 0.01% CHAPS, 50 μM Calcium, 5 μM TPEN was added and the reaction incubated for 90 min at 37° C. The enzymatic reaction was quenched by addition of 15 μl of 6.1N TCA, 100% Final Concentration is 20%, 35 μl of 8.5 mM phenyl glyoxal (final concentration 4 mM) is then added and the reaction is incubated for 30 min at 37° C.
After 30 minutes the plates are spun down to remove all precipitate. The enzyme reaction was quenched with an equal volume of methanol containing internal standard (modified citrulline). Samples were loaded onto the Rapid Fire RF300 system (Agilent) wherein they were first sipped for 1000 ms and then directly loaded to a C18 separations cartridge using a mixture of acetonitrile containing 0.01% formic acid for 3000 ms desalting. The flow rate of the mobile phase was 1.5 ml/min. Once the samples were eluted from the cartridge, a mobile phase of acetonitrile containing 0.01% formic acid was used to move the samples into the mass spectrometer for 4000 ms at a flow rate of 1.25 ml/min/Sciex API5500 triple quadrupole mass spectrometer (Applied Biosystems) equipped with ESI was used to analyze the peptidyl citrulline and internal standard ions.
MRM transition of product and internal standard were monitored at m/z 424.5 to 350.4 and m/z 293 to 247 respectively. The dwell time for each transition was set at 200 ms, and the ESI voltage was used at 5500 with a source temperature of 400° C. Extracted ion peaks for each transition were integrated using the Rapid Fire Integrator software. Peak area of analyte was normalized with internal standard.).

Chain of human PAD4 (hPAD4) (Q9UM07 whole entry): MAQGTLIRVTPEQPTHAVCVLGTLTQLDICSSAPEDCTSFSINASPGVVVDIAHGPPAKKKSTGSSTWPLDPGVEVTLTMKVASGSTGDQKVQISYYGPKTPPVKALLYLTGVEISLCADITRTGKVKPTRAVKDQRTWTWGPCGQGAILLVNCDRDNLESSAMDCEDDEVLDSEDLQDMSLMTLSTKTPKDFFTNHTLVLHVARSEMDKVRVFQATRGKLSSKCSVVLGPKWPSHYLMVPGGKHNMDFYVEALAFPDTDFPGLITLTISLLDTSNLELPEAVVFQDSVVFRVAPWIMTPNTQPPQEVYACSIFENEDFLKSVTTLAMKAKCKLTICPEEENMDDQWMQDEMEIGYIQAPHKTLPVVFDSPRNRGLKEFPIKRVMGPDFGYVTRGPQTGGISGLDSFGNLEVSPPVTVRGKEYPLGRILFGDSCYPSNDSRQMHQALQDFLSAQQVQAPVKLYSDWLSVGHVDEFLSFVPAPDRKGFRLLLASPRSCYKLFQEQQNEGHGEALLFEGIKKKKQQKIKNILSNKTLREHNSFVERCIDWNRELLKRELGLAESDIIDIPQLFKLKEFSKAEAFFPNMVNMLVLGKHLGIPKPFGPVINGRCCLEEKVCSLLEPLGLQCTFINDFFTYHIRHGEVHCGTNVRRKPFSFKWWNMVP

Compound	IC50 [µM]
Cc1c(-c2cc3ccc(OCC4CNC(=O)C4)nc3n2CC2CC2)nn2cc(C(=O)N3CC4CCC3[C@@H]4N)cc(F)c12 (mixture of isomers) [Example 275, 4-{[(2-{6-[(7R)-7-Amino-2-azabicyclo[2.2.1]heptane-2-carbonyl]-4-fluoro-3-methylpyrazolo[1,5-a]pyridin-2-yl}-1-(cyclopropylmethyl)-1H-pyrrolo[2,3-b]pyridin-6-yl)oxy]methyl}pyrrolidin-2-one]	0.12
Cc1c(-c2cc3ccc(C(C)(O)C(F)F)nc3n2CC2CC2)nn2cc(C(=O)N3CC4CCC3[C@@H]4N)ccc12 (mixture of isomers) [Example 381, 2-(2-{6-[(7R)-7-Amino-2-azabicyclo[2.2.1]heptane-2-carbonyl]-3-methylpyrazolo[1,5-a]pyridin-2-yl}-1-(cyclopropylmethyl)-1H-pyrrolo[2,3-b]pyridin-6-yl)-1,1-difluoropropan-2-ol]	0.02
Cc1c(-c2cc3ccc(C(C)(O)C(F)(F)F)nc3n2CC2CC2)nn2cc(C(=O)N3CCC[C@@H](N)C3)ccc12 (mixture of isomers) [Example 382, 2-(2-{6-[(3R)-3-Aminopiperidine-1-carbonyl]-3-methylpyrazolo[1,5-a]pyridin-2-yl}-1-(cyclopropylmethyl)-1H-pyrrolo[2,3-b]pyridin-6-yl)-1,1,1-trifluoropropan-2-ol]	0.15
Cc1c(-c2cc3ccc(C(C)O)nc3n2CC2CC2)nn2cc(C(=O)N3CCC[C@@H](N)C3)ccc12 (mixture of isomers) [Example 385, 1-(2-{6-[(3R)-3-Aminopiperidine-1-carbonyl]-3-methylpyrazolo[1,5-a]pyridin-2-yl}-1-(cyclopropylmethyl)-1H-pyrrolo[2,3-b]pyridin-6-yl)ethan-1-ol]	0.27
COc1cc(C(=O)N2CCC[C@@H](N)C2)cn2nc(-c3cc4cccc(C5CCN(C(=O)C6CC(O)(C(F)(F)F)C6)CC5)c4n3CC3CC3)c(C)c12 (mixture of isomers) [Example 398, (R)-(3-Aminopiperidin-1-yl)(2-(1-(cyclopropylmethyl)-7-(1-(3-hydroxy-3-(trifluoromethyl)cyclobutane-1-carbonyl)piperidin-4-yl)-1H-indol-2-yl)-4-methoxy-3-methylpyrazolo[1,5-a]pyridin-6-yl)methanone]	0.04
COc1cc(C(=O)N2C[C@H](N)C[C@@H](F)C2)cn2nc(-c3cc4cccc(C5CCN(C(=O)C6CC(O)(C(F)(F)F)C6)CC5)c4n3CC3CC3)c(C)c12 (mixture of isomers) [Example 399, ((3R,5R)-3-Amino-5-fluoropiperidin-1-yl)(2-(1-(cyclopropylmethyl)-7-(1-(3-hydroxy-3-(trifluoromethyl)cyclobutane-1-carbonyl)piperidin-4-yl)-1H-indol-2-yl)-4-methoxy-3-methylpyrazolo[1,5-a]pyridin-6-yl)methanone]	0.05
COc1cc(C(=O)N2CCC[C@@H](N)C2)cn2nc(-c3cc4cccc(C5CCN(C(=O)C6CCCO6)CC5)c4n3CC3CC3)c(C)c12 (mixture of isomers) [Example 400, ((R)-3-Aminopiperidin-1-yl)(2-(1-(cyclopropylmethyl)-7-(1-(tetrahydrofuran-2-carbonyl)piperidin-4-yl)-1H-indol-2-yl)-4-methoxy-3-methylpyrazolo[1,5-a]pyridin-6-yl)methanone]	0.66
Cc1c(-c2cc3cccc(C4CCN(C(=O)C5CC(O)C5)CC4)c3n2CC2CC2)nn2cc(C(=O)N3C[C@H](N)C[C@@H](F)C3)cc(F)c12 (mixture of isomers) [Example 419, ((3R,5R)-3-Amino-5-fluoropiperidin-1-yl)(2-(1-(cyclopropylmethyl)-7-(1-(3-hydroxycyclobutane-1-carbonyl)piperidin-4-yl)-1H-indol-2-yl)-4-fluoro-3-methylpyrazolo[1,5-a]pyridin-6-yl)methanone]	8.25
Cc1c(-c2cc3cccc(C4CCN(C(=O)C5CC(O)C5)CC4)c3n2CC2CC2)nn2cc(C(=O)N3CCC[C@@H](N)C3)cc(F)c12 (mixture of isomers) [Example 420, (R)-(3-Aminopiperidin-1-yl)(2-(1-(cyclopropylmethyl)-7-(1-(3-hydroxycyclobutane-1-carbonyl)piperidin-4-yl)-1H-indol-2-yl)-4-fluoro-3-methylpyrazolo[1,5-a]pyridin-6-yl)methanone]	0.29
Cc1c(-c2cc3cccc(C4CCN(C(=O)C5CC(O)(C(F)(F)F)C5)CC4)c3n2CC2CC2)nn2cc(C(=O)N3C[C@H](N)C[C@@H](F)C3)cc(F)c12 (mixture of isomers) [Example 421, ((3R,5R)-3-Amino-5-fluoropiperidin-1-yl)(2-(1-(cyclopropylmethyl)-7-(1-(3-hydroxy-3-(trifluoromethyl)cyclobutane-1-carbonyl)piperidin-4-yl)-1H-indol-2-yl)-4-fluoro-3-methylpyrazolo[1,5-a]pyridin-6-yl)methanone]	0.08
Cc1c(-c2cc3cccc(C4CCN(C(=O)C5CC(O)(C(F)(F)F)C5)CC4)c3n2CC2CC2)nn2cc(C(=O)N3CCC[C@@H](N)C3)cc(F)c12 (mixture of isomers) [Example 422, (R)-(3-Aminopiperidin-1-yl)(2-(1-(cyclopropylmethyl)-7-(1-(3-hydroxy-3-(trifluoromethyl)cyclobutane-1-carbonyl)piperidin-4-yl)-1H-indol-2-yl)-4-fluoro-3-methylpyrazolo[1,5-a]pyridin-6-yl)methanone]	0.4
Cc1c(-c2cc3cccc(C4CCN(C(=O)C5CC(O)(C(F)(F)F)C5)CC4)c3n2CC2CC2)nn2cc(C(=O)N3CCC[C@@H](N)C3)ccc12 (mixture of isomers) [Example 456, (R)-(3-aminopiperidin-1-yl)(2-(1-(cyclopropylmethyl)-7-(1-(3-hydroxy-3-(trifluoromethyl)cyclobutane-1-carbonyl)piperidin-4-yl)-1H-indol-2-yl)-3-methylpyrazolo[1,5-a]pyridin-6-yl)methanone]	0.03
Cc1c(-c2cc3cccc(C4CCN(C(=O)C5CCCCO5)CC4)c3n2CC2CC2)nn2cc(C(=O)N3C[C@H](N)C[C@@H](F)C3)ccc12 (mixture of isomers) [Example 458]	0.08
Cc1c(-c2cc3cccc(C4CCN(C(=O)C5CCCO5)CC4)c3n2CC2CC2)nn2cc(C(=O)N3CCC[C@@H](N)C3)ccc12 (mixture of isomers) [Example 462, ((R)-3-aminopiperidin-1-yl)(2-(1-(cyclopropylmethyl)-7-(1-(tetrahydrofuran-2-carbonyl)piperidin-4-yl)-1H-indol-2-yl)-3-methylpyrazolo[1,5-a]pyridin-6-yl)methanone]	0.03
Cc1c(-c2cc3cccc(C4CCN(C(=O)C5CCCO5)CC4)c3n2CC2CC2)nn2cc(C(=O)N3C[C@H](N)C[C@@H](F)C3)ccc12 (mixture of isomers) [Example 463, ((3R,5R)-3-amino-5-fluoropiperidin-1-yl)(2-(1-(cyclopropylmethyl)-7-(1-(tetrahydrofuran-2-carbonyl)piperidin-4-yl)-1H-indol-2-yl)-3-methylpyrazolo[1,5-a]pyridin-6-yl)methanone]	0.1
Cc1c(-c2cc3cccc(C4CCN(C(=O)C5CC(O)C5)CC4)c3n2CC2CC2)nn2cc(C(=O)N3CCC[C@@H](N)C3)ccc12 (mixture of isomers) [Example 465, (R)-(3-aminopiperidin-1-yl)(2-(1-(cyclopropylmethyl)-7-(1-(3-hydroxycyclobutane-1-carbonyl)piperidin-4-yl)-1H-indol-2-yl)-3-methylpyrazolo[1,5-a]pyridin-6-yl)methanone]	0.13
Cc1c(-c2cc3cccc(C4CCN(C(=O)C5CC(O)C5)CC4)c3n2CC2CC2)nn2cc(C(=O)N3C[C@H](N)C[C@@H](F)C3)ccc12 (mixture of isomers) [Example 466, ((3R,5R)-3-amino-5-fluoropiperidin-1-yl)(2-(1-(cyclopropylmethyl)-7-(1-(3-hydroxycyclobutane-1-carbonyl)piperidin-4-yl)-1H-indol-2-yl)-3-methylpyrazolo[1,5-a]pyridin-6-yl)methanone]	0.19
